Test results from article PMC9231138, “Dihydrotanshinone I Enhances Cell Adhesion and Inhibits Cell Migration in Osteosarcoma U−2 OS Cells through CD44 and Chemokine Signaling” (Molecules, 2022).

Key:
Type in all cases: cell-based, human
FOXO1 = FOXO1 by immunofluorescence and immunoblotting; conditions: DS−1 3.125, 6.25, and 12.5 μM
Procedure: (§1) Figure 3 DS−1 inhibited the expression of transcription factor FOXO1 in U−2 OS cells. (A) U−2 OS cells were treated with DS−1 at 0, 3.125, 6.25, and 12.5 μM, and the changes in FOXO1 were analyzed by immunofluorescent staining, followed by confocal microscopy imaging. (B) U−2OS cells were treated with DS−1 at 0, 3.125, 6.25, and 12.5 μM, and FOXO1 and pFOXO1 were analyzed by Western blot; the changes were presented in histograms (C,D). (E) U−2 OS cells were treated with DS−1 at 6.25 μM for 0, 12, 24, and 48 h, then FOXO1 was analyzed by Western blot, and the changes are presented in the histogram (F). (G) The pFOXO1/FOXO1 value is shown in the histogram. […]
(§2) Sample preparation: U−2 OS cells seeded in 10 cm Petri dishes were collected and washed with ice-cold PBS and RIPA lysis buffer with PMAF; phosphatase inhibitor was added, and the tubes were placed on ice for 30 min and vortexed for 30 s at intervals of 10 min. […] The protein samples were placed on ice, and the concentration of each protein sample was measured by the BCA kit (Thermo). […]
(§3) Antibody staining: We blocked the membrane for 1 h at room temperature using 5% blocking solution, then incubated the membrane with appropriate dilutions of the primary antibody in the blocking solution overnight at 4 °C. […] Images were acquired using darkroom development techniques for chemiluminescence and analyzed by Image J.

p21 = experiment: RT-PCR p21 mRNA in U−2 OS cells; conditions: 24 h
Procedure: (§4) Total RNA within cells was extracted by the RNAeasy™ Animal Long RNA Isolation Kit with Spin Column (Shanghai, Beyotime); the concentrations and OD260/OD280 and OD230/OD260 values were measured by NanoDrop. Five micrograms of RNA was used for reverse transcription; each sample was diluted to 16 μL, and 4 μL of synthesized premix solution (5×) was added, then the mixtures were placed in a 42 °C water bath for 10 min, then an 80 °C water bath for 10 min to deactivate reverse transcriptase. After reverse transcription, each sample was diluted to 140 μL. PCR amplification was carried out by the ABI700 real-time PCR system, and the amplification reaction was detected with a SYBR probe. After PCR, actin and GAPDH were used as internal references, and the relative standard curve method (2^−ΔΔcT) determined the relative expression of mRNA.

phospho−FOXO1 = experiment: Western blot phospho−FOXO1
Procedure: as §1, §2, §3

CDK2 = experiment: RT-PCR CDK2 mRNA in U−2 OS cells; conditions: 24 h
Procedure: as §4

FASN = experiment: RT-PCR FASN mRNA in U−2 OS cells; conditions: 24 h
Procedure: as §4

CD44 = experiment: Western blot of 80 kDa and 70 kDa CD44; conditions: DS−1 2.5, 5.0, and 7.5 µM for 24 h
Procedure: Sample preparation: U−2 OS cells seeded in 10 cm Petri dishes were collected and washed with ice-cold PBS and RIPA lysis buffer with PMAF; phosphatase inhibitor was added, and the tubes were placed on ice for 30 min and vortexed for 30 s at intervals of 10 min. The samples were centrifuged at 12,000 g at 4 °C for 15 min, and the supernatants were collected in new centrifuge tubes. The protein samples were placed on ice, and the concentration of each protein sample was measured by the BCA kit (Thermo). The protein concentration was adjusted to the same by milli Q ultrapure water.
Loading and running the gel: Equal amounts of protein were loaded into the wells of the 10% SDS-PAGE gel, along with molecular weight markers, and 15 μg of total protein from the cell lysate was loaded. We then ran the gel for 45 min at 200 V.
Transferring the protein: We prepared the transfer stack as follows: negative plate, sponge, filter paper, gel, PVDF membrane, filter paper, sponge, and positive plate. The transfer was for 90 min at 200 mA.
as §3

IL6 = experiment: RT-PCR IL6 mRNA in U−2 OS cells; conditions: 24 h
Procedure: as §4

U−2 OS cells = experiment: Cell adhesion: trypsin digestion time, U−2 OS cells; conditions: DS−1 7.5 μM for 24 h, trypsin at 25 °C; control within 120 s
Procedure: We wondered if there were other pathways affecting cell migration besides EMT signals.
Figure 7 DS−1 enhanced U−2 OS cells’ adhesion. (A) The morphological changes of U−2 OS cells treated with/without DS−1. Cells were treated with 0 and 7.5 μM DS−1 for 24 h, washed with PBS, and digested with trypsin at 25 °C under a microscope, and photos were taken every 30 s. The percentages of digested cells are recorded in (B). (C) Heatmap of genes related to the adherens’ junction in the control group and DS−1 group. (D) U−2 OS cells were treated with 0 and 7.5 μM DS−1 for 24 h, and the expression of CD44 was observed by immunofluorescence. (E,F) CD44 and GAPDH were analyzed by Western blot and calculated by Image J. (G) The relative expression of 4 kinds of MT-MMPs was analyzed by the transcriptome, as shown in the heatmap. (H) After being treated with DS−1, the relative expression of MT-MMP-1 was verified by RT-PCR. Values are the average of three independent experiments, * p < 0.05, ** p < 0.01, *** p < 0.005.

Cc1cccc2c3c(ccc12)C1=C(C(=O)C3=O)[C@@H](C)CO1 [DS−1, 15,16-Dihydrotanshinone I]
expression of FOXO1 (FOXO1): reduced
p21 mRNA, fold of the control group (p21; DS−1 2.5 µM): 10.1 ± 3.9 fold
p21 mRNA, fold of the control group (p21; DS−1 5.0 µM): 56.8 ± 8.2 fold
p21 mRNA, fold of the control group (p21; DS−1 7.5 µM): 90.2 ± 6.7 fold
phosphorylation of FOXO1 (pFOXO1/FOXO1 value) (phospho−FOXO1; with increasing concentration of DS−1, Image J): increased
phospho−FOXO1 (phospho−FOXO1; with the concentration of DS−1 (3.125, 6.25, 12.5 μM) and the time of treatment (6.25 μM, 12, 24, 48 h)): reduced
CDK2 mRNA, fold of the control group (CDK2; first of three DS−1 doses (2.5 µM per Fig. 5 legend)): 0.85 ± 0.08 fold
CDK2 mRNA, fold of the control group (CDK2; second of three DS−1 doses (5.0 µM per Fig. 5 legend)): 0.80 ± 0.16 fold
CDK2 mRNA, fold of the control group (CDK2; third of three DS−1 doses (7.5 µM per Fig. 5 legend)): 0.66 ± 0.07 fold
FASN mRNA, fold of the control group (FASN; DS−1 2.5 µM): 0.59 ± 0.14 fold
FASN mRNA, fold of the control group (FASN; DS−1 5.0 µM): 0.51 ± 0.07 fold
FASN mRNA, fold of the control group (FASN; DS−1 7.5 µM): 0.26 ± 0.01 fold
70 kDa CD44 protein (CD44): decreased
80 kDa CD44 protein (CD44): significantly increased
IL6 mRNA, fold (IL6; DS−1 2.5 µM): 0.81 ± 0.09 fold
IL6 mRNA, fold (IL6; DS−1 5.0 µM): 0.51 ± 0.07 fold
IL6 mRNA, fold (IL6; DS−1 7.5 µM): 0.42 ± 0.12 fold
time of trypsin digestion (U−2 OS cells): ≤ 210 s
